Assay results taken from patent publication US4148795A, “Dithiocarbamate ester bactericides and fungicides” (American Cyanamid Company, priority 1976, dated 1979).
Several values for one entry are separate records, joined by “and”; a condition that tells them apart may be missing. Identical values can stand only once. Like-named read-outs stand apart in the source and are kept apart here.

Legend:
[1] = test system: Pseudomonas solaracaerum; type: cell-based
[2] = test system: Piricularia oryzae; type: in vivo; parameters: scale not given here; conditions: Rice Blast, five days
[3] = test system: Pythium de Baryanum; assay: Agar dilution plate; type: cell-based; conditions: Pd; 100 ppm, 72 hours at 23° C
Description: (§1) Test compounds were incorporated in a Sabouraud's dextrose agar in an amount sufficient to provide the active ingredient in a concentration of about 100 ppm. A twenty-ml. sample of the agar mixture is placed in a petri dish and permitted to solidify. An agar sample is inoculated with the test organism set forth below and then covered and incubated for a period of about 72 hours at 23° C. After incubation, growth observations are made. The test results are recorded and the test is repeated twice for the purpose of comparison.
(§2) The data obtained with a variety of test organisms is shown in the table below, and ratings are shown as 0 or 5. O indicates no control, 5 indicates 100% effectiveness of the test compound against the specified organism.

[4] = test system: Aspergillus niger; assay: Agar dilution plate; type: cell-based; conditions: An; 100 ppm, 72 hours at 23° C
Description: as §1, §2

[5] = test system: Monilinia fructicola; assay: Agar dilution plate; type: cell-based; conditions: Mf; 100 ppm, 72 hours at 23° C
Description: as §1, §2

[6] = test system: Fusarium lycopersici; assay: Agar dilution plate; type: cell-based; conditions: Fl; 100 ppm, 72 hours at 23° C
Description: as §1, §2

[7] = test system: Rhizoctonia solani; assay: Agar dilution plate; type: cell-based; conditions: Rs; 100 ppm, 72 hours at 23° C
Description: as §1, §2

[8] = test system: Stemphylium sarcinaeforme; assay: Agar dilution plate; type: cell-based; conditions: Ss; 100 ppm, 72 hours at 23° C
Description: as §1, §2
Ss= Stemphylium sarcinaeforme

[9] = test system: Xanthomonas vesicatoria; type: cell-based; conditions: 100 ppm; subcultures 72 hours at 37° C; also: key: 0: No Effect; 9: Kill of Bacteria; 5: Stasis, but not Kill of all Bacteria
[10] = test system: Staphylococcus aureus; type: cell-based; conditions: 100 ppm; subcultures 72 hours at 37° C; also: key: 0: No Effect; 9: Kill of Bacteria; 5: Stasis, but not Kill of all Bacteria
[11] = test system: Verticillium albo-atrum; assay: Agar dilution plate; type: cell-based; conditions: Va; 100 ppm, 72 hours at 23° C
Description: as §1, §2
Va= Verticillium albo-atrum

[12] = test system: Stemphylium sarcinaeforme; assay: Spore germination inhibition; type: cell-based; conditions: Stemphylium sarciniforme; for inhibition at 100 ppm: 24 h, read-out: % Inhibition of Spore Germination; for inhibition at 1 ppm / inhibition at 10 ppm: 24 hours
Source text: (§3) The test procedure involves the preparation of a 100, 10 or 1 ppm. suspension of test compound in water. The solutions are placed in one dram "opticlear" vials and separately inoculated with one drop of a spore suspension prepared from seven-day cultures of Aspergillus niger and 14-day old cultures of Monilinia fructicola and Stemphylium sarcinaeforme,all grown on potato-dextrose agar. The vials containing the separately inoculated solutions of test compounds are then capped and placed on a rotating tumbler for 24 hours to assure contact of the organism with the test compound. After 24 hours, the vials are removed and examined for inhibition of […].

[13] = test system: Aspergillus niger; assay: Spore germination inhibition; type: cell-based; conditions: 24 hours
Source text: as §3

[14] = test system: Monilinia fructicola; assay: Spore germination inhibition; type: cell-based; conditions: for inhibition at 1 ppm / inhibition at 10 ppm: 24 hours; for inhibition at 100 ppm: 24 h, read-out: % Inhibition of Spore Germination
Source text: as §3

[15] = test system: Collectotrichum lagenarium; assay: Agar dilution plate; type: cell-based; conditions: Cl; 100 ppm, 72 hours at 23° C
Description: as §1, §2
Cl= Collectotrichum lagenarium

[16] = test system: Aerobacter aerogenes; type: cell-based; conditions: 100 ppm; subcultures 72 hours at 37° C; also: key: 0: No Effect; 9: Kill of Bacteria; 5: Stasis, but not Kill of all Bacteria
[17] = test system: Venturia inaequalis; conditions: in vivo; also: key: 5: clean, no disease; 4: trace of disease; 3: slight disease; 2: moderate disease; 1: severe disease; 0: like controls
[18] = test system: Phytophthora infestans; type: in vivo; parameters: scale not given here; conditions: Tomato Late Blight, five days

SMILES	Agar Dilution Plate rating ([1]; 100 ppm, 72 hours at 23° C)	disease control index ([2]; 150 ppm)	disease control index ([2]; 300 ppm)	disease control index ([2]; 600 ppm)	disease control index ([2]; 1200 ppm)	Agar Dilution Plate rating [3]	Agar Dilution Plate rating [4]	Agar Dilution Plate rating [5]	Agar Dilution Plate rating [6]	Agar Dilution Plate rating [7]	Agar Dilution Plate rating [8]	Antibacterial Activity rating [9]	Antibacterial Activity rating [10]	Agar Dilution Plate rating [11]	inhibition at 100 ppm [12] [%]	inhibition at 1 ppm [12] [%]	inhibition at 10 ppm [12] [%]	inhibition at 1 ppm [13] [%]	Agar Dilution Plate rating [15]	Antibacterial Activity rating [16]	also measured
CC(=O)C(CSC(=S)N(C)C)=C(C)O [Example 9, 2-(1-Hydroxyethylidene)-3-oxobutyl Dimethyldithiocarbamate]	0	0	2	3	4	0	0	0	0	0	0	0	5	0	100	0	0	0	5 (100% effectiveness of the test compound against the specified organism)	0	inhibition at 10 ppm [13]: 0%; inhibition at 100 ppm [13]: 100%; inhibition at 1 ppm [14]: 0%; inhibition at 10 ppm [14]: 0%; inhibition at 100 ppm [14]: 100%
CN(C)C(=S)SCC(SC(=S)N(C)C)C(=O)c1ccccc1 (stereo not shown) [Example 11]	0	–	–	–	–	0	0	5 (100% effectiveness of the test compound against the specified organism)	0	0	0	0	5	0	–	–	–	–	5 (100% effectiveness of the test compound against the specified organism)	0	disease control index [17]: 5; disease control index ([2]; at 75 ppm): 3; disease control index ([2]; at 500 ppm): 4; disease control index ([18]; at 100 ppm): 3; disease control index ([18]; at 500 ppm): 4
CN(C)C(=S)SC(C[N+](=O)[O-])c1ccc(Cl)cc1Cl (stereo not drawn) [Example 17, 2,4-Dichloro-α-(nitromethyl)benzyl Dimethyldithiocarbamate]	0	3	5	5	5	0	0	0	0	0	0	0	5	5 (100% effectiveness of the test compound against the specified organism)	–	–	–	–	5 (100% effectiveness of the test compound against the specified organism)	0	disease control index [17]: 5 and 0; disease control index ([18]; 150 ppm): 0; disease control index ([18]; 300 ppm): 4; disease control index ([18]; 600 ppm): 5; disease control index ([18]; 1200 ppm): 5
CC(=O)C(CSC(=S)N(C)C)SC(=S)N(C)C (stereo not shown) [Example 10, Acetylethylene Dimethyldithiocarbamate]	–	–	–	–	–	5 (100% effectiveness of the test compound against the specified organism)	5 (100% effectiveness of the test compound against the specified organism)	5 (100% effectiveness of the test compound against the specified organism)	5 (100% effectiveness of the test compound against the specified organism)	5 (100% effectiveness of the test compound against the specified organism)	5 (100% effectiveness of the test compound against the specified organism)	5	9	5 (100% effectiveness of the test compound against the specified organism)	100	100	100	100	5 (100% effectiveness of the test compound against the specified organism)	9	Agar Dilution Plate rating [1]: 0; disease control index ([2]; at 75 ppm): 4; disease control index ([2]; at 500 ppm): 5; inhibition at 10 ppm [13]: 100%; inhibition at 100 ppm [13]: 100%; inhibition at 1 ppm [14]: 100%; inhibition at 10 ppm [14]: 100%; inhibition at 100 ppm [14]: 100%; disease control index ([18]; at 100 ppm): 4; disease control index ([18]; at 500 ppm): 5
CC(C)c1ccc(C(C[N+](=O)[O-])SC(=S)N(C)C)cc1 (stereo not drawn) [Example 26, p-Isopropyl-α-(nitromethyl)benzyl Dimethyldithiocarbamate]	0	4	4	5	5	5 (100% effectiveness of the test compound against the specified organism)	0	5 (100% effectiveness of the test compound against the specified organism)	0	5 (100% effectiveness of the test compound against the specified organism)	5 (100% effectiveness of the test compound against the specified organism)	0	5	5 (100% effectiveness of the test compound against the specified organism)	–	–	–	–	5 (100% effectiveness of the test compound against the specified organism)	0	disease control index [17]: 5 and 0; disease control index ([18]; 150 ppm): 3; disease control index ([18]; 300 ppm): 4; disease control index ([18]; 600 ppm): 4; disease control index ([18]; 1200 ppm): 5
CCC(CSC(=S)N(C)C)[N+](=O)[O-] (stereo not shown) [Example 6, 2-Nitrobutyl Dimethyldithiocarbamate]	0	–	–	–	–	5 (100% effectiveness of the test compound against the specified organism)	5 (100% effectiveness of the test compound against the specified organism)	5 (100% effectiveness of the test compound against the specified organism)	5 (100% effectiveness of the test compound against the specified organism)	5 (100% effectiveness of the test compound against the specified organism)	5 (100% effectiveness of the test compound against the specified organism)	9	9	5 (100% effectiveness of the test compound against the specified organism)	100	100	100	0	5 (100% effectiveness of the test compound against the specified organism)	9	inhibition at 10 ppm [13]: 100%; inhibition at 100 ppm [13]: 100%; inhibition at 1 ppm [14]: 100%; inhibition at 10 ppm [14]: 100%; inhibition at 100 ppm [14]: 100%
